In patent publication US10071133B2, “Method for destroying exosomes, kit for destroying exosomes, and method for isolating exosomes derived from normal cells” (priority 2015, dated 2018):

Columns and labels:
[1] = tested on: exosome fraction B derived from human breast cancer cells (MDA-MB-231-luc-D3H2LN); assay: Extraction of microRNA (miR-21) from exosomes derived from human breast cancer cells, real-time PCR; assay type: biochemical; details: 100 μM peptide, 1×10^11 particles/mL exosomes, 0.4 U/μL RNase inhibitor, 37° C., 24 hours; without peptide 8×10^−14M
Protocol: (§1) A cell suspension of cell line MDA-MB-231-luc-D3H2LN derived from human breast cancer (=MM231-luc-D3H2LN, provided by the National Cancer Center Research Institute) was seeded in a dish containing RPMI 1640 medium (manufactured by Thermo Fisher Scientific Inc.) containing 10% fetal bovine serum. Subsequently, the cell line was grown at 37° C. under the condition that CO2 concentration was set to 5 volume % using a CO2 incubator, and then the medium was replaced with Advanced RPMI 1640 medium (manufactured by Thermo Fisher Scientific Inc.), followed by culturing for 48 hours, and therefore the culture solution containing exosomes was obtained. This culture solution was centrifuged at 2,000 G for 10 minutes to remove the precipitate, followed by centrifugation at 110,000 G for 70 minutes to precipitate the exosomes, and therefore an exosome fraction B was recovered. The recovered exosome fraction B was suspended in a phosphate buffered saline (PBS) and then stored at 4° C. Storage samples were lightly suspended with a vortex mixer (vibration mixer) before use.
(§2) MicroRNA (miR-21 or miR-16) in the reaction solution was subjected to reverse transcription PCR using reverse transcription primers (manufactured by Thermo Fisher Scientific Inc., Taqman microRNA Assays, RT primers, and hsa-mir-21 or hsa-mir-16) and a reverse transcriptase (manufactured by Thermo Fisher Scientific Inc., Taqman microRNA RT kit).
(§3) The reverse transcription PCR solution obtained by the above described method was processed and by comparing the number of cycles on a calibration curve of microRNA using Taqman Assay primer (manufactured by Thermo Fisher Scientific Inc., Taqman microRNA Assays, Taqman Assay primer, and hsa-mir-21 or hsa-mir-16) and Real-Time PCR Master Mixes (manufactured by Thermo Fisher Scientific Inc., TaqMan Universal PCR Master Mix II, w/UNG) with StepOnePlus Real-Time PCR System, MiR-21 or miR-16 was quantified. The calibration curve of microRNA was created using synthetic miR-21 (manufactured by Sigma-Aldrich Co. LLC.) or synthetic miR-16 (manufactured by Sigma-Aldrich Co. LLC.).
(§4) 10 μL of the exosome fraction was prepared such that PBS contains 1×10^11 particles/mL of the exosome fraction B derived from human breast cancer cells, various antimicrobial peptides shown in the following Table 2 adjusted to 100 μM, and 0.4 U/μL of RNase inhibitor (manufactured by Toyobo Co., Ltd.), followed by incubation by being left to stand at 37° C. for 24 hours.
MicroRNA eluted into the solution was purified and recovered from the incubated solution of Example 10 above and Comparative Example 6 above by the following method.
First, 160 μL of PBS was added to the reaction solution, and then the solution was added to a centrifugal filter (manufactured by Millipore Corporation, Amicon Ultra 0.5 mL, 100K filter) and centrifuged at 14,000 G for 2 minutes. Subsequently, 100 μL of the centrifuged filtrate was recovered and introduced into a 1.5 mL tube. Next, 350 μL of RLT buffer (manufactured by QIAGEN, attached with RNeasy mini kit) and 675 μL of ethanol were added and mixed in the 1.5 mL tube. The obtained mixture was separated into two parts, and each of the separates was added onto a spin column (manufactured by QIAGEN, attached with RNeasy mini kit) followed by centrifugation at 8,000 G for 15 seconds, and the entire amount of the mixture was passed through the spin column. Thereafter, 500 μL of RPE buffer (manufactured by QIAGEN, attached with RNeasy mini kit) was added thereto and centrifuged at 8,000 G for 15 seconds. Furthermore, 500 μL of the RPE buffer was added to the spin column once more and centrifuged at 8,000 G for 15 seconds. Thereafter, the spin column was centrifuged at 14,000 G for 1 minute to remove the residual RPE buffer. Next, 30 μL of RNase free water (manufactured by QIAGEN, attached with RNeasy mini kit) was added to the spin column, left for 1 minute, and then centrifuged at 14,000 G for 1 minute, and the eluate obtained thereby was recovered. […]

[2] = tested on: exosome derived from human prostate cancer cells (PC3ML); assay: Extraction of microRNA (miR-21) from exosome derived from prostate cancer cells, real-time PCR; assay type: biochemical; details: 100 μM peptide, 1×10^11 particles/mL PC3ML exosomes, 0.4 U/μL RNase inhibitor, 37° C., 24 hours; without peptide 3×10^−14M
Protocol: A cell suspension of cell line PC3ML derived from human prostate cancer cells (provided by the National Cancer Center Research Institute) was seeded in a dish containing RPMI 1640 medium (manufactured by Thermo Fisher Scientific Inc.) containing 10% fetal bovine serum. Subsequently, the cell line was grown at 37° C. under the condition that CO2 concentration was set to 5 volume % using a CO2 incubator, and then the medium was replaced with Advanced RPMI 1640 medium (manufactured by Thermo Fisher Scientific Inc.), followed by culturing for 48 hours, and the culture solution containing exosomes was obtained. This culture solution was centrifuged at 2,000 G for 10 minutes to remove the precipitate, followed by centrifugation at 110,000 G for 70 minutes to precipitate the exosomes, and therefore an exosome fraction was recovered. The recovered exosome fraction was suspended in a phosphate buffered saline (PBS) and then stored at 4° C. Storage samples were lightly suspended with a vortex mixer (vibration mixer) before use. […]
as §3, with “The calibration curve of microRNA was created using synthetic miR-21 (manufactured by Sigma-Aldrich Co. LLC.) or synthetic miR-16 (manufactured by Sigma-Aldrich Co. LLC.).” left out
The amount of microRNA (miR-21) contained in the recovered eluate was quantified by the above described real-time PCR method. […] In addition, the destructive activity of the antimicrobial peptide used was evaluated on the basis of the following criteria based on the quantitative result of the concentration of microRNA (miR-21) performed by the real-time PCR method. […]

[3] = tested on: exosomes derived from cancer cells; assay: Preliminary examination of destructive ability of anticancer peptides against exosomes derived from cancer cells; assay type: biochemical
Description: Specifically, the present inventors have come to realize the following knowledge.

[4] = tested on: exosome fraction A prepared from the cell line MM231-luc-D3H2LN derived from human breast cancer cells; assay: Destruction of exosomes in PBS, number of exosomes by nanoparticle analyzer (NanoSight LM10); assay type: biochemical; details: 50 μM peptide, 1.36×10^10 particles/mL exosomes in PBS, 25° C., 48 hours
Description: Storage samples were lightly suspended with a vortex mixer (vibration mixer) before use.

[5] = tested on: exosome fraction B derived from human breast cancer cells versus exosome fraction derived from human mammary gland cells (MCF-10A, normal cells); assay: Selectivity: miR-16 ratio, breast cancer exosomes versus mammary gland normal cell exosomes (Formula 1); assay type: biochemical; details: for mir-16 ratio: Formula 1, cancer/normal (MCF-10A), 100 μM peptide, 37° C., 24 hours; for Selectivity: from miR-16 ratio versus Comparative Example 8, breast cancer vs MCF-10A exosomes
Protocol: as §1
A cell suspension of cell line MCF 10A derived from human mammary epithelial cells (provided by the National Cancer Center Research Institute) was seeded in a dish containing Mammary Epithelium Cell Basal Medium (manufactured by Lonza). Subsequently, the cell line was grown at 37° C. under the condition that CO2 concentration was set to 5 volume % using a CO2 incubator, and then the medium was replaced with a fresh medium, followed by culturing for 48 hours, and the culture solution containing exosomes was obtained. This culture solution was centrifuged at 2,000 G for 10 minutes to remove the precipitate, followed by centrifugation at 110,000 G for 70 minutes to precipitate the exosomes, and an exosome fraction was recovered. The recovered exosome fraction was suspended in a phosphate buffered saline (PBS) and then stored at 4° C. Storage samples were lightly suspended with a vortex mixer (vibration mixer) before use.
as §2, §3
as §4, with “Table 4” for “Table 2”
Thereafter, the eluted MicroRNA (miR-16) was purified and recovered from the incubated solution by the same method as the above described method for extraction from the incubated solution of Examples 10 and 11 above and Comparative Examples 6 and 7 above. […]

[6] = tested on: exosomes derived from human breast cancer cells (MM231-luc-D3H2LN) in human peripheral blood sample; details: […]10^10 particles/mL exosomes, 100 μM magainin 2 or 8% phenol, 25° C., 24 hours
Protocol: The exosome fraction A prepared from the cell line MM231-luc-D3H2LN derived from human breast cancer cells was added to a peripheral blood sample collected from a healthy person with no cancer (hereinafter will be also referred to as human peripheral blood sample) so as to become an exosome concentration of an actual cancer patient, and thereby an artificial sample of a human peripheral blood of the cancer patient was produced. The human peripheral blood sample was obtained after procurement of the patient informed consent according to the Declaration of Helsinki, similarly to the method described in Japanese Unexamined patent publication No. 2013-198483, for example. Blood was drawn using a blood collection tube containing an anticoagulant.
Using a part of the incubated solution, the exosomes were purified with Exo-Flow32 CD9 IP Kit (manufactured by SBI), and then the number of exosomes in the solution was measured using the nanoparticle analyzer (NanoSight LM10; manufactured by NanoSight, Ltd.). […] In addition, a part of the incubated solution was subjected to the serum component protein electrophoresis.

Row | Compound | Destructive activity (concentration of microRNA miR-21 in eluate) [1] | mir-16 ratio [5] | Selectivity [5] | other results
1 | K6L9 (LKLLKKLLKKLLKLL) | B (the concentration of microRNA is 10×10^−14M to 50×10^−14M) |  |  | Destructive activity (concentration of microRNA miR-21 in eluate) [2]: A (the concentration of microRNA is 10×10^−14M or more)
2 | A6K: amino acid sequence AAAAAAK (Ac-AAAAAAK-NH2) | D (the concentration of microRNA is less than 10×10^−14M) |  |  | destructive ability against the exosomes derived from cancer cells [3]: no or a low level
3 | Polybia-MPI | B (the concentration of microRNA is 10×10^−14M to 50×10^−14M) |  |  | Destructive activity (concentration of microRNA miR-21 in eluate) [2]: A (the concentration of microRNA is 10×10^−14M or more)
4 | Nisin [Example 3] |  |  |  | number of exosomes in the solution [4]: 4.51×10^9 particles/mL
5 | PR-39 (RRRPRPPYLPRPRPPPFFPPRLPPRIPPGFPPRFPPRFP) | D (the concentration of microRNA is less than 10×10^−14M) |  |  | destructive ability against the exosomes derived from cancer cells [3]: no or a low level
6 | Lactoferricin [Example 4] |  |  |  | number of exosomes in the solution [4]: 7.47×10^9 particles/mL
7 | LL-37 | A (the concentration of microRNA is 50×10^−14M or more) | 18 | B (evaluated as “B” in a case where the calculated miR-16 value was higher than the miR-16 ratio of Comparative Example 8) | number of exosomes in the solution [4]: 1.09×10^9 particles/mL
8 | mCRAMP (GLLRKGGEKIGEKLKKIGQKIKNFFQKLVPQPEQ) | A (the concentration of microRNA is 50×10^−14M or more) | 9 | B (evaluated as “B” in a case where the calculated miR-16 value was higher than the miR-16 ratio of Comparative Example 8) | 
9 | Oc1ccccc1 [Comparative Example 2, phenol, reference compound] |  |  |  | exosome amount compared to Comparative Example 3 (no additive) [6]: decreased
10 | Maximin 1 | B (the concentration of microRNA is 10×10^−14M to 50×10^−14M) | 22 | B (evaluated as “B” in a case where the calculated miR-16 value was higher than the miR-16 ratio of Comparative Example 8) | 
11 | Maximin 4 | B (the concentration of microRNA is 10×10^−14M to 50×10^−14M) | 311 | B (evaluated as “B” in a case where the calculated miR-16 value was higher than the miR-16 ratio of Comparative Example 8) | 
12 | Hepcidin TH2-3 | D (the concentration of microRNA is less than 10×10^−14M) |  |  | destructive ability against the exosomes derived from cancer cells [3]: no or a low level
